Test results taken from patent US11028079B2 (ConverGene LLC, priority 2015, dated 2021).

These compounds were tested against T1, BRD4 bromodomains (Homo sapiens, UniProt O60885) (assay: BROMOscan bromodomain competition binding assay (DiscoveRx)). Details: Kd from 11 compound concentrations ranging from 0 to 10 μM, read-out: BROMOscan Relative Activity.
T1 construct: fused on or other part: T7 phage capsid protein (phage-display fusion; the phage DNA is read out by qPCR)
Method in brief: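 Compounds in 0.1% DMSO/0.9% MEG competed with a solid-phase acetylated peptide for T7 phage-fused BRD4 bromodomains, with the retained bromodomain measured by qPCR.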

| Kd [nM] | SMILES |
| --- | --- |
| > 5000 | Cc1noc(C)c1-c1ccc2nc(Oc3ccc(Cl)cc3)nc(NCc3cccc(Cl)c3)c2c1 [Example 169, N-(3-chlorobenzyl)-2-(4-chlorophenoxy)-6-(3,5-dimethylisoxazol-4-yl)quinazolin-4-amine] |
| 500 to 5000 | Cc1noc(C)c1-c1ccc2nc(C(=O)NC3CCC(F)(F)CC3)nc(NCc3cccc(Cl)c3)c2c1 [Example 252, 4-((3-chlorobenzyl)amino)-N-(4,4-difluorocyclohexyl)-6-(3,5-dimethylisoxazol-4-yl)quinazoline-2-carboxamide] |
| < 500 | Cc1noc(C)c1-c1ccc2nc(N3CCN(CCCN(C)C)CC3)nc(NCc3cccc(Cl)c3)c2c1 [Example 16, N-(3-chlorobenzyl)-2-(4-(3-(dimethylamino)propyl)piperazin-1-yl)-6-(3,5-dimethylisoxazol-4-yl)quinazolin-4-amine] |
| < 500 | Cc1noc(C)c1-c1ccc2nc(N3CCC(S(C)(=O)=O)CC3)nc(NCc3cccc(Cl)c3)c2c1 [Example 153, N-(3-chlorobenzyl)-6-(3,5-dimethylisoxazol-4-yl)-2-(4-(methylsulfonyl)piperidin-1-yl)quinazolin-4-amine] |
| < 500 | Cc1noc(C)c1-c1ccc2nc(N3CCN(CCN(C)C)CC3)nc(N3CCCC3c3ccccc3)c2c1 (centres unmarked) [Example 174, 2-(4-(6-(3,5-dimethylisoxazol-4-yl)-4-(2-phenylpyrrolidin-1-yl)quinazolin-2-yl)piperazin-1-yl)-N,N-dimethylethanamine] |
| < 500 | Cc1noc(C)c1-c1ccc2nc(N3CCC(C)(C#N)CC3)nc(NCc3cncc(Cl)c3)c2c1 [Example 157, 1-(4-(((5-chloropyridin-3-yl)methyl)amino)-6-(3,5-dimethylisoxazol-4-yl)quinazolin-2-yl)-4-methylpiperidine-4-carbonitrile] |
| < 500 | Cc1noc(C)c1-c1ccc2nc(-c3cnn(CC(C)(C)O)c3)nc(N3CCOC[C@H]3c3ccccc3)c2c1 [Example 263, (R)-1-(4-(6-(3,5-dimethylisoxazol-4-yl)-4-(3-phenylmorpholino)quinazolin-2-yl)-1H-pyrazol-1-yl)-2-methylpropan-2-ol] |
| < 500 | Cc1noc(C)c1-c1ccc2nc(C(=O)NCc3nccn3C)nc(NCc3cccc(Cl)c3)c2c1 [Example 251, 4-((3-chlorobenzyl)amino)-6-(3,5-dimethylisoxazol-4-yl)-N-((1-methyl-1H-imidazol-2-yl)methyl)quinazoline-2-carboxamide] |
| < 500 | Cc1noc(C)c1-c1ccc2nc(-c3cnn(C(C)(C)CO)c3)nc(NCc3cccc(Cl)c3)c2c1 [Example 62, 2-(4-(4-((3-chlorobenzyl)amino)-6-(3,5-dimethylisoxazol-4-yl)quinazolin-2-yl)-1H-pyrazol-1-yl)-2-methylpropan-1-ol] |
| 500 to 5000 | Cc1cc(NCc2cccc(Cl)c2)c2cc(-c3c(C)noc3C)ccc2n1 [Example 4, N-(3-chlorobenzyl)-6-(3,5-dimethylisoxazol-4-yl)-2-methylquinolin-4-amine] |
| < 500 | Cc1noc(C)c1-c1ccc2nc(C(=O)NCc3cnn(C)c3)nc(NCc3cccc(Cl)c3)c2c1 [Example 186, 4-((3-chlorobenzyl)amino)-6-(3,5-dimethylisoxazol-4-yl)-N-((1-methyl-1H-pyrazol-4-yl)methyl)quinazoline-2-carboxamide] |
| < 500 | Cc1noc(C)c1-c1ccc2nc(N3CCN(C(=O)CO)CC3)nc(NCc3cccc(Cl)c3)c2c1 [Example 36, 1-(4-(4-((3-chlorobenzyl)amino)-6-(3,5-dimethylisoxazol-4-yl)quinazolin-2-yl)piperazin-1-yl)-2-hydroxyethanone] |
| < 500 | Cc1noc(C)c1-c1ccc2nc(C(=O)NC3CS(=O)(=O)C3)nc(N3CCOC[C@@H]3c3ccccc3)c2c1 [Example 315, (S)-6-(3,5-dimethylisoxazol-4-yl)-N-(1,1-dioxidothietan-3-yl)-4-(3-phenylmorpholino)quinazoline-2-carboxamide] |
| < 500 | Cc1noc(C)c1-c1ccc2nc(C(=O)NC3CCS(=O)(=O)CC3)nc(NCc3cccc(Cl)c3)c2c1 [Example 204, 4-((3-chlorobenzyl)amino)-6-(3,5-dimethylisoxazol-4-yl)-N-(1,1-dioxidotetrahydro-2H-thiopyran-4-yl)quinazoline-2-carboxamide] |
| < 500 | Cc1noc(C)c1-c1ccc2nc(N3CCc4c(cnn4C)C3)nc(N3CCOC[C@@H]3c3ccccc3)c2c1 [Example 289, (S)-4-(6-(3,5-dimethylisoxazol-4-yl)-2-(1-methyl-1,4,6,7-tetrahydro-5H-pyrazolo[4,3-c]pyridin-5-yl)quinazolin-4-yl)-3-phenylmorpholine] |
| < 500 | Cc1noc(C)c1-c1ccc2nc(N3CCN(CCO)CC3)nc(NCc3cncc(Cl)c3)c2c1 [Example 120, 2-(4-(4-(((5-chloropyridin-3-yl)methyl)amino)-6-(3,5-dimethylisoxazol-4-yl)quinazolin-2-yl)piperazin-1-yl)ethanol] |

| Kd [nM] | SMILES |
| --- | --- |
| < 500 | Cc1noc(C)c1-c1ccc2nc(-c3cnn(CC(N)=O)c3)nc(N3CCOC[C@@H]3c3ccccc3)c2c1 [Example 297, (S)-2-(4-(6-(3,5-dimethylisoxazol-4-yl)-4-(3-phenylmorpholino)quinazolin-2-yl)-1H-pyrazol-1-yl)acetamide] |
| 500 to 5000 | Cc1noc(C)c1-c1ccc2nc(-c3cnn(CCO)c3)nc(Nc3ccc(Cl)cc3)c2c1 [Example 150, 2-(4-(4-((4-chlorophenyl)amino)-6-(3,5-dimethylisoxazol-4-yl)quinazolin-2-yl)-1H-pyrazol-1-yl)ethanol] |
| > 5000 | Cc1noc(C)c1-c1ccc2nc(NCc3ccc(Cl)cc3)nc(NCc3cccc(Cl)c3)c2c1 [Example 167, N4-(3-chlorobenzyl)-N2-(4-chlorobenzyl)-6-(3,5-dimethylisoxazol-4-yl)quinazoline-2,4-diamine] |
| < 500 | CC(=O)N1CC(n2cc(-c3nc(N4CCOC[C@@H]4c4ccccc4)c4cc(-c5c(C)noc5C)ccc4n3)cn2)C1 [Example 324, (S)-1-(3-(4-(6-(3,5-dimethylisoxazol-4-yl)-4-(3-phenylmorpholino)quinazolin-2-yl)-1H-pyrazol-1-yl)azetidin-1-yl)ethan-1-one] |
| < 500 | Cc1noc(C)c1-c1ccc2nc(N3CCN(CCN(C)C)CC3)nc(NC(C)c3cccs3)c2c1 (centres unmarked) [Example 89, 2-(4-(2-(dimethylamino)ethyl)piperazin-1-yl)-6-(3,5-dimethylisoxazol-4-yl)-N-(1-(thiophen-2-yl)ethyl)quinazolin-4-amine] |
| > 5000 | Cc1noc(C)c1-c1cc(NCc2cccc(Cl)c2)c2cc(Br)ccc2n1 [Example 15, 6-bromo-N-(3-chlorobenzyl)-2-(3,5-dimethylisoxazol-4-yl)quinolin-4-amine] |
| < 500 | Cn1cc(-c2ccc3nc(-c4cnn(CC(C)(C)O)c4)nc(N4CCOC[C@@H]4c4ccccc4)c3c2)ccc1=O [Example 292, (S)-5-(2-(1-(2-hydroxy-2-methylpropyl)-1H-pyrazol-4-yl)-4-(3-phenylmorpholino)quinazolin-6-yl)-1-methylpyridin-2(1H)-one] |
| < 500 | Cc1noc(C)c1-c1ccc2nc(C(=O)Nc3cnn(C)c3)nc(NCc3cccc(Cl)c3)c2c1 [Example 225, 4-((3-chlorobenzyl)amino)-6-(3,5-dimethylisoxazol-4-yl)-N-(1-methyl-1H-pyrazol-4-yl)quinazoline-2-carboxamide] |
| < 500 | Cc1noc(C)c1-c1ccc2nc(N3CCC4(CCN(C)C4=O)CC3)nc(N3CCOC[C@@H]3c3ccccc3)c2c1 [Example 320, (S)-8-(6-(3,5-dimethylisoxazol-4-yl)-4-(3-phenylmorpholino)quinazolin-2-yl)-2-methyl-2,8-diazaspiro[4.5]decan-1-one] |
| < 500 | C[C@H](O)CN1CCN(c2nc(NCc3cccc(Cl)c3)c3cc(-c4ccc(=O)n(C)c4)ccc3n2)CC1 [Example 111, (S)-5-(4-((3-chlorobenzyl)amino)-2-(4-(2-hydroxypropyl)piperazin-1-yl)quinazolin-6-yl)-1-methylpyridin-2(1H)-one] |
| 500 to 5000 | Cc1noc(C)c1-c1ccc2nc(C3=CCN(S(C)(=O)=O)CC3)nc(NCc3cccc(Cl)c3)c2c1 [Example 210, N-(3-chlorobenzyl)-6-(3,5-dimethylisoxazol-4-yl)-2-(1-(methylsulfonyl)-1,2,3,6-tetrahydropyridin-4-yl)quinazolin-4-amine] |
| < 500 | Cc1noc(C)c1-c1ccc2nc(N3CCN(CC(=O)N(C)C)CC3)nc(N3CCOC[C@@H]3c3ccccc3)c2c1 [Example 303, (S)-2-(4-(6-(3,5-dimethylisoxazol-4-yl)-4-(3-phenylmorpholino)quinazolin-2-yl)piperazin-1-yl)-N,N-dimethylacetamide] |
| < 500 | Cc1noc(C)c1-c1ccc2nc(C(=O)NC3CCN(C)CC3)nc(NCc3cccc(Cl)c3)c2c1 [Example 172, 4-((3-chlorobenzyl)amino)-6-(3,5-dimethylisoxazol-4-yl)-N-(1-methylpiperidin-4-yl)quinazoline-2-carboxamide] |
| < 500 | Cc1noc(C)c1-c1ccc2nc(C(=O)NC3CCN(C)CC3)nc(NCc3cncc(Cl)c3)c2c1 [Example 209, 4-(((5-chloropyridin-3-yl)methyl)amino)-6-(3,5-dimethylisoxazol-4-yl)-N-(1-methylpiperidin-4-yl)quinazoline-2-carboxamide] |
| < 500 | Cc1noc(C)c1-c1ccc2nc(N3CCN(C(=O)CO)CC3)nc(NCc3cncc(Cl)c3)c2c1 [Example 132, 1-(4-(4-(((5-chloropyridin-3-yl)methyl)amino)-6-(3,5-dimethylisoxazol-4-yl)quinazolin-2-yl)piperazin-1-yl)-2-hydroxyethanone] |
| < 500 | Cc1noc(C)c1-c1ccc2nc(N3CCN(C(=O)c4cnn(C)c4)CC3)nc(N3CCOC[C@@H]3c3ccccc3)c2c1 [Example 300, (S)-(4-(6-(3,5-dimethylisoxazol-4-yl)-4-(3-phenylmorpholino)quinazolin-2-yl)piperazin-1-yl)(1-methyl-1H-pyrazol-4-yl)methanone] |
